Data set [1] concerns cultured tumor cells. The data set can be described thus: Paclitaxel cytotoxicity with BSO and NAC (WST). In kind it is cell-based.
For data set [2], the system named is B.5 LX-1 cells. Nature of the data set: In situ TUNEL staining for DNA fragmentation. The following applies: melphalan 10 μg/ml, N-acetylcysteine 1000 μg/ml. It counts as cell-based. The protocol:
FIGS. 7A and 7B show the effect of cytoenhancement and chemoprotection on apoptosis. […] Apoptosis was assessed in cultured LX-1 SCLC cells pretreated for 18 hours with or without 100 μM BSO. The experimental conditions were no addition (open bars), melphalan (10 μg/ml, striped bars) or melphalan (10 μg/ml) plus N-acetylcysteine (1000 μg/ml) (cross hatched bars) for 20 h prior to harvest. Caspase-2 activity is expressed as percentage activity in untreated control samples (mean±standard deviation, n=3). TUNEL staining is expressed as the percentage of cells showing positive staining.
Apoptosis was evaluated by measuring Caspase-2 enzymatic activity and by in situ TUNEL staining. […] The increase in caspase activity was variable between experiments and ranged from 50–100% at 7–8 h to 250–600% at 20–24 h after treatment with melphalan. […] In the experiment shown in FIG. 7B, TUNEL staining after melphalan treatment was positive in 29 of 3643 cells, compared to 7 of 4395 cells in the untreated control, and BSO treatment prior to melphalan increased the positive staining to 800 of 1699 cells. […] In both assays, activity was maximal with low doses of melphalan, or with a 1 hour pulse treatment with the doses used in the cytotoxicity assays.

The nature of data set [3]: Radiolabeled NAC tissue delivery by route of administration. It counts as in vivo, rat. The following applies: for 14C-NAC found in brain: Example 10. On the procedure:
Radiolabeled NAC in combination with unlabeled low dose NAC (140 mg/kg) or high dose NAC (1200 mg/kg) was administered to rats with the following routes of infusion: i.v. (open bars), intra-arterially into the right carotid artery (striped bars), intra-arterial via the left carotid artery with left internal artery occlusion (aortic infusion) (black bars), and intra-arterial (right carotid) with BBBD (cross hatched bars). Radiolabel in tissue homogenates is expressed as the mean and standard error of the % administered dose of 14C-NAC per gram of tissue (n=3 rats per group). Significant differences from i.v. delivery are indicated by *P<0.05 and **P<0.001.
In this experiment, radiolabeled NAC was administered to rats by three different routes. Liver and kidney tissue, in addition to the ipsilateral and contralateral hemispheres of the brain, were analyzed for radioactivity. Results are shown as the percent of the injected radioactive dose per gram of tissue. Route indicates intravenous (i.v.), intra-arterial into the right carotid artery (i.a.), or left carotid with internal artery occlusion and aortic infusion (left carotid aortic infusion). The left carotid aortic infusion intra-arterial method uses descending aorta placement of the catheter tip and NAC administration.
This example tested whether the inventive method for intra-arterial infusion (via the left carotid artery, with left internal artery occlusion) could reduce brain delivery of NAC and increase systemic delivery. Brain delivery was 0.04% of the injected dose with the inventive method (n=2).
The method of administration of NAC and its biodistribution was tested. Intra-arterial infusion retrograde via the left external carotid artery, with transient left internal artery occlusion, was evaluated as a mechanism to essentially perfuse via the descending aorta with limited delivery to the brain. […] The serum concentration of NAC 10 min after administration of 1200 mg/kg was 2.4 0.6 mg/ml (n=6) as determined by radiolabel remaining in the blood.

Data set [4] relates to B.5 LX-1 cells. Nature of the data set: cells. The protocol: FIGS. 4A and 4B show cytoenhancement and chemoprotection. […] Cytotoxicity was assessed in cultured LX-1 SCLC cells, 1×10^4 cells per well in 96 well plates, using the WST colorometric assay. BSO cytoenhancement consisted of preincubation at 100 μM BSO for 18 hours. The chemoprotective agent was added immediately after chemotherapy. The experimental conditions were dose/responses for chemotherapy (carboplatin or etoposide phosphate) alone (m), BSO cytoenhancement ( ? ), N-acetylcysteine rescue, (1000 μg/ml N-acetylcysteine, n), or BSO cytoenhancement and N-acetylcysteine rescue (u). Data are expressed as the percentage of live cells compared to untreated control samples without chemotherapy and each point represents the mean±standard deviation of 4 wells.
The effects of BSO cytoenhancement and thiol chemoprotection on the dose/response relationships for cytotoxicity of the alkylating chemotherapeutics were evaluated in the B.5 LX-1 cells. BSO cytoenhancement consisted of preincubation with 100 μM BSO for about 18–24 hours prior to addition of chemotherapy, and rescue consisted of 1000–2000 μg/ml of thiol chemoprotectant added immediately after chemotherapy.
Cytoenhancement and chemoprotection against non-alkylating chemotherapeutic agents was also evaluated.
Half-maximal cytotoxic concentrations (EC50) are expressed as μg/ml. Each EC50 measurement comprised 6 concentrations with 4 wells per concentration, and each dose response was performed in triplicate for each chemotherapeutic agent. Data are reported as the mean±pooled standard deviation for three independent experiments. P values are shown for the reduction in EC50 by BSO treatment (*=P<0.05, **=P<0.01, ***=P<0.001).

Setting [5] is: route left carotid aortic infusion, n=2.

SMILES strings stand for the structures.

Turning to `CC(=O)N[C@@H](CS)C(=O)O` [NAC, N-acetylcysteine], the “effect on BSO-enhanced paclitaxel toxicity” value in data set [1] is listed as “completely reversed the enhanced toxicity”. In data set [1], the “effect on the dose response for paclitaxel alone” value was “did not change the dose response”. Moreover, in data set [2], the “effect on melphalan-induced TUNEL staining” value is “reduced”. Besides, the serum concentration of NAC in data set [3] (10 min after administration of 1200 mg/kg, radiolabel remaining in the blood, n=6) came out at 2400 µg/mL. The “14C-NAC found in brain” value is listed as “minimized brain delivery” in data set [3] (aortic infusion); “negligible amounts” in data set [3] (i.v.); “high levels of radiolabel in the right cerebral hemisphere” in data set [3] (intra-arterial, right internal carotid artery). The “liver and kidney delivery with aortic infusion” value in data set [3] (high dose (1200 mg/kg) NAC, data not shown) was “no change in liver and kidney delivery”; in data set [3] (low dose of NAC (140 mg/kg)) it was “decreased liver delivery and increased kidney delivery”. Further, the Brain delivery in data set [3] (intra-arterial infusion via the left carotid artery with left internal artery occlusion, n=2) was 0.04 % of the injected dose. Besides, the left hem is 0.03% of the injected radioactive dose per gram of tissue in data set [3] (route i.a. into the right carotid artery, n=3); 0.02% of the injected radioactive dose per gram of tissue in data set [3] (route i.v., left brain hemisphere, n=2); 0.04% of the injected radioactive dose per gram of tissue in data set [3] (setting [5]). Moreover, the kidney is 0.72% of the injected radioactive dose per gram of tissue in data set [3] (route i.v., n=2) and 1.42% of the injected radioactive dose per gram of tissue in data set [3] (setting [5]). The liver in data set [3] (route i.v., n=2) is given as 0.59% of the injected radioactive dose per gram of tissue; in data set [3] (setting [5]), 0.29% of the injected radioactive dose per gram of tissue. Further, the right hem in data set [3] (setting [5]) is reported as 0.04% of the injected radioactive dose per gram of tissue. For the same compound, the “effect on BSO-enhanced taxol cytotoxicity” value in data set [4] is on record as “completely reversed”.

The record behind these values is patent US7022315B2, “Administration of a thiol-based chemoprotectant compound” (Oregon Health & Science University, priority 2000, dated 2006).
